Test results from ChEMBL document CHEMBL2069240, “Design, solvent free synthesis, and antimicrobial evaluation of 1,4 dihydropyridines” (2012).
Converted amounts (≈) assume the structure as drawn.

What was measured:
[1] = tested on: Streptococcus pyogenes; test: Antibacterial activity against Streptococcus pyogenes ATCC 19615; type: functional
[2] = tested on: Escherichia coli; test: Ratio of ampicillin MIC to compound MIC for ampicillin-resistant Escherichia coli clinical isolate; type: functional
[3] = tested on: Bacillus subtilis; test: Antibacterial activity against Bacillus subtilis ATCC 9372; type: functional
[4] = tested on: Citrobacter koseri; test: Antibacterial activity against Citrobacter koseri ATCC 27028; type: functional
[5] = tested on: Klebsiella pneumoniae; test: Antibacterial activity against Klebsiella pneumoniae ATCC 7761; type: functional
[6] = tested on: Klebsiella pneumoniae; test: Ratio of ampicillin MIC to compound MIC for ampicillin-resistant Klebsiella pneumoniae clinical isolate; type: functional
[7] = tested on: Escherichia coli; test: Antibacterial activity against ampicillin-resistant Escherichia coli clinical isolate; type: functional
[8] = tested on: Salmonella typhi; test: Antibacterial activity against Salmonella typhi ATCC 700931; type: functional, Salmonella enterica subsp. enterica serovar Typhi; conditions: Salmonella enterica
[9] = tested on: Pseudomonas aeruginosa; test: Antibacterial activity against Pseudomonas aeruginosa ATCC 27853; type: functional
[10] = tested on: Staphylococcus aureus; test: Antibacterial activity against Staphylococcus aureus ATCC 25923; type: functional
[11] = tested on: Klebsiella pneumoniae; test: Antibacterial activity against ampicillin-resistant Klebsiella pneumoniae clinical isolate; type: functional
[12] = tested on: Shigella dysenteriae; test: Antibacterial activity against Shigella dysenteriae ATCC 32412; type: functional
[13] = tested on: Escherichia coli; test: Antibacterial activity against Escherichia coli ATCC 25922; type: functional
[14] = tested on: Enterococcus faecalis; test: Antibacterial activity against Enterococcus faecalis ATCC 51299; type: functional

Structure (SMILES) | MIC [1] [mg/L] | Ratio [2] | MIC [3] [mg/L] | MIC [4] [mg/L] | MIC [5] [mg/L] | Ratio [6] | MIC [7] [mg/L] | MIC [8] [mg/L] | MIC [9] [mg/L] | MIC [10] [mg/L] | MIC [11] [mg/L] | MIC [12] [mg/L] | MIC [13] [mg/L] | MIC [14] [mg/L]
CCOC(=O)C1=C(C)NC(C)=C(C(=O)OCC)C1c1ccccc1 | 2500 (≈ 7590 µM) | 4 | 2500 (≈ 7590 µM) | 2500 (≈ 7590 µM) | 1250 (≈ 3790 µM) | 4 | 125 (≈ 379 µM) | 2500 (≈ 7590 µM) | 1250 (≈ 3790 µM) | 1250 (≈ 3790 µM) | 125 (≈ 379 µM) | 1250 (≈ 3790 µM) | 2500 (≈ 7590 µM) | 2500 (≈ 7590 µM)
CCOC(=O)C1=C(C)NC(C)=C(C(=O)OCC)C1c1cccc([N+](=O)[O-])c1 | 2500 (≈ 6680 µM) | 4 | 2500 (≈ 6680 µM) | 2500 (≈ 6680 µM) | 2500 (≈ 6680 µM) | 4 | 125 (≈ 334 µM) | 1250 (≈ 3340 µM) | 5000 (≈ 13400 µM) | 1250 (≈ 3340 µM) | 125 (≈ 334 µM) | 2500 (≈ 6680 µM) | 2500 (≈ 6680 µM) | 2500 (≈ 6680 µM)
CCOC(=O)C1=C(C)N=C(C)/C(=C(/O)OCC)C1 | 1250 (≈ 4930 µM) | 4 | 1250 (≈ 4930 µM) | 1250 (≈ 4930 µM) | 1250 (≈ 4930 µM) | 4 | 125 (≈ 493 µM) | 2500 (≈ 9870 µM) | 1250 (≈ 4930 µM) | 1250 (≈ 4930 µM) | 62.5 (≈ 247 µM) | 1250 (≈ 4930 µM) | 1250 (≈ 4930 µM) | 1250 (≈ 4930 µM)
CCOC(=O)C1=C(C)NC(C)=C(C(=O)OCC)C1c1ccc(Cl)cc1 | 125 (≈ 344 µM) | 4 | 500 (≈ 1370 µM) | 125 (≈ 344 µM) | 125 (≈ 344 µM) | 4 | 62.5 (≈ 172 µM) | 500 (≈ 1370 µM) | 500 (≈ 1370 µM) | 125 (≈ 344 µM) | 31.2 (≈ 85.9 µM) | 500 (≈ 1370 µM) | 125 (≈ 344 µM) | 125 (≈ 344 µM)
CCOC(=O)C1=C(C)NC(C)=C(C(=O)OCC)C1c1ccccc1O | 250 (≈ 724 µM) | 4 | 250 (≈ 724 µM) | 125 (≈ 362 µM) | 125 (≈ 362 µM) | 4 | 62.5 (≈ 181 µM) | 500 (≈ 1450 µM) | 250 (≈ 724 µM) | 250 (≈ 724 µM) | 31.2 (≈ 90.5 µM) | 250 (≈ 724 µM) | 250 (≈ 724 µM) | 250 (≈ 724 µM)
CCOC(=O)C1=C(C)NC(C)=C(C(=O)OCC)C1c1ccc(O)cc1 | 2500 (≈ 7240 µM) | 4 | 2500 (≈ 7240 µM) | 2500 (≈ 7240 µM) | 2500 (≈ 7240 µM) | 4 | 125 (≈ 362 µM) | 5000 (≈ 14500 µM) | 5000 (≈ 14500 µM) | 2500 (≈ 7240 µM) | 125 (≈ 362 µM) | 5000 (≈ 14500 µM) | 2500 (≈ 7240 µM) | 2500 (≈ 7240 µM)
CCOC(=O)C1=C(C)NC(C)=C(C(=O)OCC)C1c1ccc(OC)cc1 | 2500 (≈ 6960 µM) | 4 | 1250 (≈ 3480 µM) | 1250 (≈ 3480 µM) | 1250 (≈ 3480 µM) | 4 | 62.5 (≈ 174 µM) | 5000 (≈ 13900 µM) | 5000 (≈ 13900 µM) | 2500 (≈ 6960 µM) | 125 (≈ 348 µM) | 2500 (≈ 6960 µM) | 1250 (≈ 3480 µM) | 2500 (≈ 6960 µM)
CCOC(=O)C1=C(C)NC(C)=C(C(=O)OCC)C1c1ccc(OC)c(OC)c1 | 1250 (≈ 3210 µM) | 4 | 125 (≈ 321 µM) | 2500 (≈ 6420 µM) | 2500 (≈ 6420 µM) | 4 | 125 (≈ 321 µM) | 1250 (≈ 3210 µM) | 1250 (≈ 3210 µM) | 1250 (≈ 3210 µM) | 125 (≈ 321 µM) | 1250 (≈ 3210 µM) | 2500 (≈ 6420 µM) | 1250 (≈ 3210 µM)
CCOC(=O)C1=C(C)NC(C)=C(C(=O)OCC)C1c1ccccc1Cl | 125 (≈ 344 µM) | 4 | 250 (≈ 687 µM) | 250 (≈ 687 µM) | 250 (≈ 687 µM) | 4 | 125 (≈ 344 µM) | 250 (≈ 687 µM) | 250 (≈ 687 µM) | 125 (≈ 344 µM) | 125 (≈ 344 µM) | 250 (≈ 687 µM) | 250 (≈ 687 µM) | 125 (≈ 344 µM)
CCOC(=O)C1=C(C)NC(C)=C(C(=O)OCC)C1c1cccc(O)c1 | 1250 (≈ 3620 µM) | 4 | 1250 (≈ 3620 µM) | 500 (≈ 1450 µM) | 500 (≈ 1450 µM) | 4 | 125 (≈ 362 µM) | 500 (≈ 1450 µM) | 1250 (≈ 3620 µM) | 1250 (≈ 3620 µM) | 62.5 (≈ 181 µM) | 125 (≈ 362 µM) | 500 (≈ 1450 µM) | 1250 (≈ 3620 µM)
CCOC(=O)C1=C(C)NC(C)=C(C(=O)OCC)C1c1ccc(O)c(OC)c1 | 125 (≈ 333 µM) | 4 | 125 (≈ 333 µM) | 125 (≈ 333 µM) | 125 (≈ 333 µM) | 4 | 31.2 (≈ 83.2 µM) | 125 (≈ 333 µM) | 125 (≈ 333 µM) | 125 (≈ 333 µM) | 31.2 (≈ 83.2 µM) | 125 (≈ 333 µM) | 125 (≈ 333 µM) | 125 (≈ 333 µM)
CCOC(=O)C1=C(C)NC(C)=C(C(=O)OCC)C1c1cc(OC)c(OC)c(OC)c1 | 2500 (≈ 5960 µM) | 4 | 1250 (≈ 2980 µM) | 2500 (≈ 5960 µM) | 2500 (≈ 5960 µM) | 4 | 250 (≈ 596 µM) | 1250 (≈ 2980 µM) | 2500 (≈ 5960 µM) | 1250 (≈ 2980 µM) | 250 (≈ 596 µM) | 1250 (≈ 2980 µM) | 2500 (≈ 5960 µM) | 1250 (≈ 2980 µM)
CCOC(=O)C1=C(C)NC(C)=C(C(=O)OCC)C1c1cc(OC)ccc1OC | 250 (≈ 642 µM) | 4 | 2500 (≈ 6420 µM) | 250 (≈ 642 µM) | 250 (≈ 642 µM) | 4 | 250 (≈ 642 µM) | 500 (≈ 1280 µM) | 2500 (≈ 6420 µM) | 250 (≈ 642 µM) | 125 (≈ 321 µM) | 500 (≈ 1280 µM) | 500 (≈ 1280 µM) | 250 (≈ 642 µM)
CC1(C)S[C@@H]2[C@H](NC(=O)[C@H](N)c3ccccc3)C(=O)N2[C@H]1C(=O)O [AMPICILLIN] | 0.06 (≈ 0.172 µM) | – | 25 (≈ 71.5 µM) | 25 (≈ 71.5 µM) | 500 (≈ 1430 µM) | – | > 2000 | 5 (≈ 14.3 µM) | 2 (≈ 5.72 µM) | 10 (≈ 28.6 µM) | > 2000 | 50 (≈ 143 µM) | 200 (≈ 572 µM) | 15 (≈ 42.9 µM)
